Like-named read-outs stand apart in the source and are kept apart here.
Assays:
Format in all cases: binding
[1] = target: T1, BRD9 (Homo sapiens, UniProt Q9H8M2); test: Isothermal titration calorimetry, BRD9; settings: for Kd / ΔG / N (stoichiometry) / ΔHobs / TΔS: ITC, 15 °C; for Kd: 50 mM HEPES pH 7.5, 150 mM NaCl, triplicate, read-out: KD; for Kd / N (stoichiometry) / ΔHobs: reverse titration; for LE (ligand efficiency): LE = ΔG/N, N number of non-hydrogen atoms
T1 construct: made in house
T1 sequence (Q9H8M2 136-240 limits assumed): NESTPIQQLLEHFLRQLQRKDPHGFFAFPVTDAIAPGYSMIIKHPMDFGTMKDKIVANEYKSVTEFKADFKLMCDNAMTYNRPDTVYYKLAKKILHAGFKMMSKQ
Description: (§1) Experiments were carried out on an ITC200 titration microcalorimeter from MicroCal, LLC (GE Healthcare) equipped with a Washing module, with a cell volume of 0.2003 mL, and a 40 μL microsyringe. Experiments were carried out at 15 °C while stirring at 1000 rpm, in ITC buffer (50 mM HEPES, pH 7.5 (at 25 °C), 150 mM NaCl). The microsyringe was loaded with a solution of the protein sample (300−740 μM protein for BRD9 and BRD4(1), respectively, in ITC buffer) and was carefully inserted into the calorimetric cell which was filled with an amount of the ligand (0.2 mL, 20–25 μM in ITC buffer). The system was first allowed to equilibrate until the cell temperature reached 15 °C, and an additional delay of 60 s was applied. All titrations were conducted using an initial control injection of 0.3 μL followed by 38 identical injections of 1 μL with a duration of 2 s (per injection) and a spacing of 120 s between injections. The titration experiments were designed in such a fashion as to ensure complete saturation of the proteins before the final injection. The heat of dilution for the proteins was independent of their concentration and corresponded to the heat observed from the last injection, following saturation of ligand binding, thus facilitating the estimation of the baseline of each titration from the last injection. The collected data were corrected for protein heats of dilution (measured on separate experiments by titrating the proteins into ITC buffer) and deconvoluted using the MicroCal Origin software supplied with the instrument to yield enthalpies of binding (ΔH) and binding constants (KB) in the same fashion as that previously described in detail by Wiseman and co-workers.[66] Thermodynamic parameters were calculated using the basic equation of thermodynamics (ΔG = ΔH – TΔS = −RT ln KB, where ΔG, ΔH, and ΔS are the changes in free energy, enthalpy, and entropy of binding, respectively). In all cases a single binding site model was employed, supplied with the MicroCal Origin software package.

[2] = target: T1, BRD9; test: Protein stability (thermal) shift assay, BRD9
Description: (§2) Thermal melting experiments were carried out using an Mx3005p real time PCR machine (Stratagene). Proteins were buffered in 10 mM HEPES, pH 7.5, 500 mM NaCl and assayed in a 96-well plate at a final concentration of 2 μM in 20 μL volume. Compounds were added at a final concentration of 10 or 100 μM. SYPRO Orange (Molecular Probes) was added as a fluorescence probe at a dilution of 1 in 1000. Excitation and emission filters for the SYPRO-Orange dye were set to 465 and 590 nm, respectively. The temperature was raised with a step of 3 °C per minute from 25 to 96 °C, and fluorescence readings were taken at each interval. The temperature dependence of the fluorescence during the protein denaturation process was approximated by the equation [drawing 1] where ΔuG is the difference in unfolding free energy between the folded and unfolded state, R is the gas constant, and yF and yU are the fluorescence intensity of the probe in the presence of completely folded and unfolded protein, respectively.[65] The baselines of the denatured and native states were approximated by a linear fit. The observed temperature shifts, ΔTm^obs, were recorded as the difference between the transition midpoints of sample and reference wells containing protein without ligand in the same plate and determined by nonlinear least-squares fit. Temperature shifts (ΔTm^obs) for three independent measurements per proteins/compound are summarized in Supporting Information Table S1.

[3] = target: T2, BRD4(1) (Homo sapiens, UniProt O60885); test: Protein stability (thermal) shift assay, BRD4(1)
T2 construct: made in house
Description: as §2

[4] = target: T3, BRD2(1) (Homo sapiens, UniProt P25440); test: Protein stability (thermal) shift assay, BRD2(1); settings: compound 10 μM, protein 2 μM; average of triplicate
T3 construct: Fragments were tested in a thermal shift assay against bromodomains of the BET subfamily; made in house
T3 sequence (P25440 74-180 limits assumed): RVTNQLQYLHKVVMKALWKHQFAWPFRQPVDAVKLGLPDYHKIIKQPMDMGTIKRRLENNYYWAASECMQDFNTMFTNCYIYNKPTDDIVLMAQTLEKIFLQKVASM
Description: as §2

[5] = target: T4, PCAF (Homo sapiens, UniProt Q92831); test: Protein stability (thermal) shift assay, PCAF; settings: compound 10 μM, protein 2 μM; average of triplicate
T4 construct: representative BRDs from other structural subfamilies (family I, PCAF); made in house
T4 sequence (Q92831 723-827 limits assumed): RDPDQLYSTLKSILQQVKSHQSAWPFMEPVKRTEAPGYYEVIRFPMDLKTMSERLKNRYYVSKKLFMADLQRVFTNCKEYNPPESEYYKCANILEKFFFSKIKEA
Description: as §2

[6] = target: T5, CREBBP (Homo sapiens, UniProt Q92793); test: Protein stability (thermal) shift assay, CREBBP
T5 construct: small thermal shits (1.0–1.3 °C) for the bromodomain of CREBBP; made in house
T5 sequence (Q92793 1085-1192 limits assumed): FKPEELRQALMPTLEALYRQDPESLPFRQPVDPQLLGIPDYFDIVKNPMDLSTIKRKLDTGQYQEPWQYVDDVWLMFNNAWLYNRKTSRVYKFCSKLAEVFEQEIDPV
Description: as §2

[7] = target: T6, BRDT(2) (Homo sapiens, UniProt Q58F21); test: Protein stability (thermal) shift assay, BRDT(2); settings: compound 10 μM, protein 2 μM; average of triplicate; read-out: ΔTm Shift, BRDT(2)
T6 construct: made in house
Description: as §2

[8] = target: T7, PB1(5) (Homo sapiens, UniProt Q86U86); test: Protein stability (thermal) shift assay, PB1(5); settings: compound 10 μM, protein 2 μM; average of triplicate
T7 construct: made in house
T7 sequence (Q86U86 653-763 limits assumed): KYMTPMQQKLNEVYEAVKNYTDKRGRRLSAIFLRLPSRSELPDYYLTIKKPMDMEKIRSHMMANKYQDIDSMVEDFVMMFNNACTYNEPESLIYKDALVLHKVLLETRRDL
Description: as §2

[9] = target: T8, BRD2(2) (Homo sapiens, UniProt P25440); test: Protein stability (thermal) shift assay, BRD2(2); settings: compound 10 μM, protein 2 μM; average of triplicate
T8 construct: made in house
T8 sequence (P25440 344-453 limits assumed): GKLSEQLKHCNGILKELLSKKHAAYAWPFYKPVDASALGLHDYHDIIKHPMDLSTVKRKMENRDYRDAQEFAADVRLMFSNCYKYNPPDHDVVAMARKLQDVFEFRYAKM
Description: as §2

[10] = target: T9, BRD3(1) (Homo sapiens, UniProt Q15059); test: Protein stability (thermal) shift assay, BRD3(1); settings: compound 10 μM, protein 2 μM; average of triplicate
T9 construct: Fragments were tested in a thermal shift assay against bromodomains of the BET subfamily; made in house
T9 sequence (Q15059 34-140 limits assumed): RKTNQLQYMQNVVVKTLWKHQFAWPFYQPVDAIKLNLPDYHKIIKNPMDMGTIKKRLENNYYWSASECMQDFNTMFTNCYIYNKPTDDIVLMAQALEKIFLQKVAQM
Description: as §2

[11] = target: T10, BRD3(2) (Homo sapiens, UniProt Q15059); test: Protein stability (thermal) shift assay, BRD3(2); settings: compound 10 μM, protein 2 μM; average of triplicate
T10 construct: made in house
T10 sequence (Q15059 306-415 limits assumed): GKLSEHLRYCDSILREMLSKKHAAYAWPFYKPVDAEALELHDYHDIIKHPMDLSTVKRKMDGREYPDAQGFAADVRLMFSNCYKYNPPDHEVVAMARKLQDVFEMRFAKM
Description: as §2

[12] = target: T11, BRD4(2) (Homo sapiens, UniProt O60885); test: Protein stability (thermal) shift assay, BRD4(2); settings: compound 10 μM, protein 2 μM; average of triplicate
T11 construct: made in house
Description: as §2

[13] = target: T12, BRDT(1) (Homo sapiens, UniProt Q58F21); test: Protein stability (thermal) shift assay, BRDT(1); settings: compound 10 μM, protein 2 μM; average of triplicate
T12 construct: made in house
Description: as §2

[14] = target: T13, BAZ2B (Homo sapiens, UniProt Q9UIF8); test: Protein stability (thermal) shift assay, BAZ2B; settings: compound 10 μM, protein 2 μM; average of triplicate; read-out: ΔTm Shift, BAZ2BA
T13 construct: representative BRDs from other structural subfamilies (family I, PCAF); family III, CREBBP; family IV, BRD9; family V, BAZ2B; made in house
T13 sequence (Q9UIF8 2060-2164 limits assumed): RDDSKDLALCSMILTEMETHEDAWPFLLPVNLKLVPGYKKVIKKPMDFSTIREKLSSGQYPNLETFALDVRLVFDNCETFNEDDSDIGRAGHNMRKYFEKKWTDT
Description: as §2

[15] = target: T2, BRD4(1); test: Isothermal titration calorimetry, BRD4(1)
Description: as §1

[16] = test system: human bromodomains (panel); test: Protein stability (thermal) shift assay, whole panel of human bromodomains; settings: 10 μM compound
Description: as §2

[17] = thermal shift, 10 μM compound, 2 μM protein, read-out: ΔTm
[18] = compound 10 μM, protein 2 μM, average of triplicate, read-out: ΔTm Shift, BRD4(1)
[19] = compound 10 μM, protein 2 μM, average of triplicate, read-out: ΔTm Shift, BRD9
[20] = compound 10 μM, protein 2 μM, average of triplicate, read-out: ΔTm Shift, CREBBP

| SMILES | Kd [1] [nM] | ΔG [1] | N (stoichiometry) [1] | ΔHobs [1] | LE (ligand efficiency) [1] | ΔTm at 10 µM [2, 17] [°C] | ΔTm at 10 µM [3, 18] [°C] | ΔTm at 10 µM [4] [°C] | ΔTm at 10 µM [5] [°C] | ΔTm at 10 µM [7] [°C] | ΔTm at 10 µM [8] [°C] | ΔTm at 10 µM [9] [°C] | ΔTm at 10 µM [10] [°C] | ΔTm at 10 µM [11] [°C] | ΔTm at 10 µM [12] [°C] | ΔTm at 10 µM [13] [°C] | ΔTm at 10 µM [14] [°C] | TΔS [1] | ΔTm at 10 µM [2, 19] [°C] | ΔTm at 10 µM [6, 20] [°C] | other results |
| --- | --- | --- | --- | --- | --- | --- | --- | --- | --- | --- | --- | --- | --- | --- | --- | --- | --- | --- | --- | --- | --- |
| COc1ccccc1-c1nc(N)nc2[nH]cnc12 [Compound 7a, 2-Amino-6-(2-methoxyphenyl)-9H-purine] | 641 ± 33 | –8.16 kcal/mol | 1.06 ± 0.004 | –12.71 ± 0.07 kcal/mol | 0.45 | 2.9 | 2.3 | 0.6 | -0.7 | 1.4 | 0.236 | 1.7 | 1.4 | 2.5 | -2.2 | 0.6 | -0.217 |  |  |  | ΔTm at 10 µM [6, 17]: 1.5 °C |
| COc1ccc(F)cc1-c1nc(N)nc2[nH]cnc12 [Compound 7b, 2-Amino-6-(5-fluoro-2-methoxyphenyl)-9H-purine] | 351 ± 18 | –8.52 kcal/mol | 0.97 ± 0.004 | –13.04 ± 0.07 kcal/mol | 0.45 |  | 0.369 | 0.3 | -0.151 | 3 | 0.5 | 0.8 | 0.548 | 0.8 | 0.1 | -0.111 | 0.3 | –4.52 kcal/mol | 2.6 | 0.356 |  |
| COc1ccc(Cl)cc1-c1nc(N)nc2[nH]cnc12 [Compound 7c, 2-Amino-6-(5-chloro-2-methoxyphenyl)-9H-purine] | 297 ± 10 | –8.59 kcal/mol | 0.98 ± 0.003 | –12.05 ± 0.04 kcal/mol | 0.45 | 3.8 |  | 0.4 | -0.9 | 0.272 | 0.272 | 1.2 | 0.9 | 1.3 | 0.7 | 0.272 | 0.272 | –3.46 kcal/mol |  | 0.272 | Kd ([15]; ITC, 50 mM HEPES pH 7.5, 150 mM NaCl, 15 °C, reverse titration, triplicate, read-out: KD): 2040 ± 118 nM; TΔS ([15]; ITC, 15 °C): 1.29 kcal/mol; ΔG ([15]; ITC, 15 °C): –7.50 kcal/mol; N (stoichiometry) ([15]; ITC, 15 °C, reverse titration): 1.05 ± 0.012; ΔHobs ([15]; ITC, 15 °C, reverse titration): –6.21 ± 0.09 kcal/mol; Kd ([15]; ITC, read-out: dissociation constant): 2040 nM; LE (ligand efficiency) ([15]; LE = ΔG/N, N number of non-hydrogen atoms): 0.39; ΔTm at 10 µM [3, 17]: 1.1 °C |
| CCOc1ccc(Br)cc1-c1nc(N)nc2[nH]cnc12 [Compound 7e, 2-Amino-6-(5-bromo-2-ethoxyphenyl)-9H-purine] |  |  |  |  |  |  | 1.9 | 0.4 | -1.1 | 1.5 | 0.3 | 1.7 | 1.6 | 2.7 | -1.5 | 0.275 | -0.5 |  | 0.316 | 0.5 | binding to BRD9 in the ΔTm assay (in words) ([2]; thermal shift, 10 μM compound): Affinity for BRD9 was lost |
| Cn1cnc2c(NCc3ccccc3)nc(NCCO)nc21 [olomoucine, reference compound] |  |  |  |  |  |  |  |  |  |  |  |  |  |  |  |  |  |  |  |  | binding to the bromodomain panel in the ΔTm assay (in words) [16]: did not show any significant stabilization |
